Assay results published in ChEMBL document CHEMBL1158559, “Chromone-2- and -3-carboxylic acids inhibit differently monoamine oxidases A and B” (Bioorg Med Chem Lett, 2010).

How the values were obtained:
[1] = target: T1, Amine oxidase [flavin-containing] A (Homo sapiens, UniProt P21397); assay: Inhibition of human recombinant MAO-A assessed as inhibition of production of hydrogen peroxide at 100 uM after 15 mins by the Amplex Red fluorimetric method
T1 sequence (P21397 whole entry): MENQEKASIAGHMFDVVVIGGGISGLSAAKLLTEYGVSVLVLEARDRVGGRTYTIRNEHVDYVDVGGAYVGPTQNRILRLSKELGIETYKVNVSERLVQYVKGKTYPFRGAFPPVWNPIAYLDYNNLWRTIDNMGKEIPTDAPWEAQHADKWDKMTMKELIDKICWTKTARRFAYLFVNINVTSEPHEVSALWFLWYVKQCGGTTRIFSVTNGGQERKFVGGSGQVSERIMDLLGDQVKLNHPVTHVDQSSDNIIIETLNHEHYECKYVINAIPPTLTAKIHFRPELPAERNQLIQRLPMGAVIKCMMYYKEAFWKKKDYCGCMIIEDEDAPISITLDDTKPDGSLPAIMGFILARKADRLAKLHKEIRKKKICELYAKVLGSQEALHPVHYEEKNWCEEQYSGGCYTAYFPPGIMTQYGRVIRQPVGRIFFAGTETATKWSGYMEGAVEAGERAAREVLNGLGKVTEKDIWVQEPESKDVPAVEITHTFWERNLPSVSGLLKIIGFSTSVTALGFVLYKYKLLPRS

[2] = target: T2, Amine oxidase [flavin-containing] B (Homo sapiens, UniProt P27338); assay: Inhibition of human recombinant MAO-B assessed as inhibition of production of hydrogen peroxide at 100 uM after 15 mins by the Amplex Red fluorimetric method
T2 sequence (P27338 whole entry): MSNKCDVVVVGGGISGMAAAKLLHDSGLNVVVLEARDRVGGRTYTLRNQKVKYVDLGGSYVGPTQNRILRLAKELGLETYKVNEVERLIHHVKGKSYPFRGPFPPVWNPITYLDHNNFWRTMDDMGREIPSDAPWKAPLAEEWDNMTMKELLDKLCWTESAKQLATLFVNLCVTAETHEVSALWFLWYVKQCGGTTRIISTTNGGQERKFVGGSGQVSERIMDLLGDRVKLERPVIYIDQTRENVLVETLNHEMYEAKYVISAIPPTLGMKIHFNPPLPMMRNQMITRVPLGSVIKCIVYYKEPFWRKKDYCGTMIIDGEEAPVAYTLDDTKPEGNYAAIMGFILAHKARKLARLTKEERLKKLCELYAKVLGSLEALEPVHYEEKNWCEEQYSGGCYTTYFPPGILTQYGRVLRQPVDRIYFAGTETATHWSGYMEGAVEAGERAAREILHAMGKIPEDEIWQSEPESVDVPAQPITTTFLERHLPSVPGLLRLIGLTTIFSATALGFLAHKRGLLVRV

[3] = target: T2, Amine oxidase [flavin-containing] B; assay: Inhibition of human recombinant MAO-B assessed as inhibition of production of hydrogen peroxide at 1 mM after 15 mins by the Amplex Red fluorimetric method

Row | SMILES | IC50 [1] | IC50 [2] | IC50 [3]
1 | O=C(O)c1coc2ccccc2c1=O | Not Active | – | –
2 | O=C(O)c1cc(=O)c2ccccc2o1 [CHROMOCARB] | Not Active | Not Active | –
3 | O=C(NCCN1CCOCC1)c1ccc(Cl)cc1 [MOCLOBEMIDE] | – | – | Not Active
